According to patent publication US20240132484A1, “BROAD SPECTRUM ANTIVIRAL COMPOUNDS TARGETING THE SKI COMPLEX” (priority 2020, published 2024):
Several values for one entry are separate records, joined by “and”; a condition that tells them apart may be missing. Equal values may be shown once. Read-outs that look alike come from different tables or passages of the source.

How the values were obtained:
[1] = tested on: SARS2; assay type: cell-based, SARS-CoV-2; conditions: for Infection Data, Average, Mean percentage infection relative to DMSO control: Average of Exp 1 (SMW506) and Exp 2 (SMW507); for Infection Data, Percentage Infection Relative to Appropriate DMSO Control: single well, avg background subtraction; for Percentage Inhibition Average 1 μM / Screening data (Relative infection to DMSO controls) Average 1 μM: SARS2, 1 μM; for Screening data (Relative infection to DMSO controls) Average 1 μM / Screening data (Relative infection to DMSO controls) Average 5 μM / Screening data (Relative infection to DMSO controls) Average 10 μM / Screening data (Relative infection to DMSO controls) Average 25 μM / Screening data (Relative infection to DMSO controls) Average 50 μM / Average (relative infection to DMSO over the 5 tested concentrations): 100=DMSO control; for Percentage Inhibition Average 5 μM / Screening data (Relative infection to DMSO controls) Average 5 μM: SARS2, 5 μM; for Percentage Inhibition Average 10 μM / Screening data (Relative infection to DMSO controls) Average 10 μM: SARS2, 10 μM; for Percentage Inhibition Average 25 μM / Screening data (Relative infection to DMSO controls) Average 25 μM: SARS2, 25 μM; for Percentage Inhibition Average 50 μM / Screening data (Relative infection to DMSO controls) Average 50 μM: SARS2, 50 μM; for Average (relative infection to DMSO over the 5 tested concentrations): SARS2, average over 1 to 50 uM
[2] = tested on: cells (nuclei count); conditions: for Toxicity Data, Average, Mean (percentage relative to appropriate DMSO control): average of Exp 1 and Exp 2, n=4; for Relative cell count to DMSO controls, Average 1 μM / Relative cell count to DMSO controls, Average 5 μM / Relative cell count to DMSO controls, Average 10 μM / Relative cell count to DMSO controls, Average 25 μM / Relative cell count to DMSO controls, Average 50 μM: toxicity data, 100=DMSO control; for Toxicity Data, Percentage Relative to Appropriate DMSO Control: single well; for Relative cell count to DMSO controls, Average (for correlation analysis): average value over the 5 tested concentrations (1 to 50 uM)

With `COc1ccc(CNCCc2ccccc2F)c(OCC(O)CN2CCOCC2)c1` (stereo not shown) [SILCS49] as the compound, how does the “Infection Data, Average, Mean percentage infection relative to DMSO control” value ([1]; n=4, 1 uM) read?
The value was 90.24%.

What about the “Infection Data, Average, Mean percentage infection relative to DMSO control” value ([1]; n=4, 5 uM) of the same compound?
Its value is 54.75%.

What about the “Infection Data, Average, Mean percentage infection relative to DMSO control” value ([1]; n=4, 10 uM) of the same compound?
Its value is 29.10%.

What about the “Infection Data, Average, Mean percentage infection relative to DMSO control” value ([1]; n=4, 25 uM) of the same compound?
The value was 27.11%.

And the “Infection Data, Average, Mean percentage infection relative to DMSO control” value ([1]; n=4, 50 uM)?
The value was 13.54%.

And the “Infection Data, Percentage Infection Relative to Appropriate DMSO Control” value ([1]; Exp 1 (SMW506), 1 uM)?
The value was 101.13% and 94.70%.

And the “Infection Data, Percentage Infection Relative to Appropriate DMSO Control” value ([1]; Exp 1 (SMW506), 5 uM)?
Its value is 55.30% and 50.40%.

What about the “Infection Data, Percentage Infection Relative to Appropriate DMSO Control” value ([1]; Exp 1 (SMW506), 10 uM) of the same compound?
The value was 38.04% and 34.18%.

What about the “Infection Data, Percentage Infection Relative to Appropriate DMSO Control” value ([1]; Exp 1 (SMW506), 25 uM) of the same compound?
The value was 27.25% and 33.31%.

And the “Infection Data, Percentage Infection Relative to Appropriate DMSO Control” value ([1]; Exp 1 (SMW506), 50 uM)?
The value was 9.17% and 7.35%.

And the “Infection Data, Percentage Infection Relative to Appropriate DMSO Control” value ([1]; Exp 2 (SMW507), 1 uM)?
Its value is 67.31% and 97.84%.

And the “Infection Data, Percentage Infection Relative to Appropriate DMSO Control” value ([1]; Exp 2 (SMW507), 5 uM)?
The value was 52.91% and 60.38%.

And the “Infection Data, Percentage Infection Relative to Appropriate DMSO Control” value ([1]; Exp 2 (SMW507), 10 uM)?
Its value is 23.33% and 20.87%.

What about the “Infection Data, Percentage Infection Relative to Appropriate DMSO Control” value ([1]; Exp 2 (SMW507), 25 uM) of the same compound?
Its value is 29.98% and 17.91%.

What about the “Infection Data, Percentage Infection Relative to Appropriate DMSO Control” value ([1]; Exp 2 (SMW507), 50 uM) of the same compound?
The value was 19.58% and 18.05%.

What about the “Percentage Inhibition Average 1 μM” value [1] of the same compound?
The value was 9.76%.

And the “Screening data (Relative infection to DMSO controls) Average 1 μM” value [1]?
Its value is 90.24.

And the “Percentage Inhibition Average 5 μM” value [1]?
Its value is 45.25%.

What about the “Screening data (Relative infection to DMSO controls) Average 5 μM” value [1] of the same compound?
Its value is 54.75.

And the “Percentage Inhibition Average 10 μM” value [1]?
The value was 70.90%.

And the “Screening data (Relative infection to DMSO controls) Average 10 μM” value [1]?
The value was 29.10.

And the “Percentage Inhibition Average 25 μM” value [1]?
Its value is 72.89%.

What about the “Screening data (Relative infection to DMSO controls) Average 25 μM” value [1] of the same compound?
Its value is 27.11.

And the “Percentage Inhibition Average 50 μM” value [1]?
The value was 86.46%.

What about the “Screening data (Relative infection to DMSO controls) Average 50 μM” value [1] of the same compound?
Its value is 13.54.

And the “Average (relative infection to DMSO over the 5 tested concentrations)” value [1]?
The value was 42.95.

And the “Toxicity Data, Average, Mean (percentage relative to appropriate DMSO control)” value ([2]; 1 uM)?
Its value is 104.43%.

And the “Relative cell count to DMSO controls, Average 1 μM” value [2]?
The value was 104.43.

What about the “Toxicity Data, Average, Mean (percentage relative to appropriate DMSO control)” value ([2]; 5 uM) of the same compound?
Its value is 113.44%.

And the “Relative cell count to DMSO controls, Average 5 μM” value [2]?
Its value is 113.44.

And the “Toxicity Data, Average, Mean (percentage relative to appropriate DMSO control)” value ([2]; 10 uM)?
The value was 120.89%.

What about the “Relative cell count to DMSO controls, Average 10 μM” value [2] of the same compound?
Its value is 120.89.

What about the “Toxicity Data, Average, Mean (percentage relative to appropriate DMSO control)” value ([2]; 25 uM) of the same compound?
The value was 115.31%.

And the “Relative cell count to DMSO controls, Average 25 μM” value [2]?
The value was 115.31.

And the “Toxicity Data, Average, Mean (percentage relative to appropriate DMSO control)” value ([2]; 50 uM)?
The value was 98.89%.

What about the “Relative cell count to DMSO controls, Average 50 μM” value [2] of the same compound?
Its value is 98.89.

And the “Toxicity Data, Percentage Relative to Appropriate DMSO Control” value ([2]; Exp 1 (SMW506), 1 uM)?
The value was 91% and 100%.

And the “Toxicity Data, Percentage Relative to Appropriate DMSO Control” value ([2]; Exp 1 (SMW506), 5 uM)?
Its value is 103% and 110%.

What about the “Toxicity Data, Percentage Relative to Appropriate DMSO Control” value ([2]; Exp 1 (SMW506), 10 uM) of the same compound?
The value was 111% and 115%.

And the “Toxicity Data, Percentage Relative to Appropriate DMSO Control” value ([2]; Exp 1 (SMW506), 25 uM)?
Its value is 109% and 115%.

And the “Toxicity Data, Percentage Relative to Appropriate DMSO Control” value ([2]; Exp 1 (SMW506), 50 uM)?
The value was 97% and 101%.

And the “Toxicity Data, Percentage Relative to Appropriate DMSO Control” value ([2]; Exp 2 (SMW507), 1 uM)?
The value was 111% and 116%.

What about the “Toxicity Data, Percentage Relative to Appropriate DMSO Control” value ([2]; Exp 2 (SMW507), 5 uM) of the same compound?
The value was 115% and 126%.

What about the “Toxicity Data, Percentage Relative to Appropriate DMSO Control” value ([2]; Exp 2 (SMW507), 10 uM) of the same compound?
The value was 124% and 133%.

What about the “Toxicity Data, Percentage Relative to Appropriate DMSO Control” value ([2]; Exp 2 (SMW507), 25 uM) of the same compound?
Its value is 112% and 125%.

What about the “Toxicity Data, Percentage Relative to Appropriate DMSO Control” value ([2]; Exp 2 (SMW507), 50 uM) of the same compound?
Its value is 91% and 107%.

And the “Relative cell count to DMSO controls, Average (for correlation analysis)” value [2]?
Its value is 110.59.

`COc1ccc(-c2[nH]ncc2C(=O)NCC2CCCCC2)cc1OC` [SILCS52] was tested. Which “Percentage Inhibition Average 1 μM” value [1] did it give?
The value was 7.72%.

What about the “Screening data (Relative infection to DMSO controls) Average 1 μM” value [1] of the same compound?
Its value is 92.28.

What about the “Percentage Inhibition Average 5 μM” value [1] of the same compound?
Its value is −17.76%.

And the “Screening data (Relative infection to DMSO controls) Average 5 μM” value [1]?
Its value is 117.76.

And the “Percentage Inhibition Average 10 μM” value [1]?
The value was −4.43%.

And the “Screening data (Relative infection to DMSO controls) Average 10 μM” value [1]?
The value was 104.43.

What about the “Percentage Inhibition Average 25 μM” value [1] of the same compound?
Its value is −20.98%.

What about the “Screening data (Relative infection to DMSO controls) Average 25 μM” value [1] of the same compound?
Its value is 120.98.

And the “Percentage Inhibition Average 50 μM” value [1]?
Its value is −22.98%.

What about the “Screening data (Relative infection to DMSO controls) Average 50 μM” value [1] of the same compound?
The value was 122.98.

And the “Average (relative infection to DMSO over the 5 tested concentrations)” value [1]?
The value was 111.69.

What about the “Relative cell count to DMSO controls, Average 1 μM” value [2] of the same compound?
Its value is 103.3.

What about the “Relative cell count to DMSO controls, Average 5 μM” value [2] of the same compound?
The value was 97.63.

What about the “Relative cell count to DMSO controls, Average 10 μM” value [2] of the same compound?
Its value is 97.92.

And the “Relative cell count to DMSO controls, Average 25 μM” value [2]?
Its value is 94.91.

What about the “Relative cell count to DMSO controls, Average 50 μM” value [2] of the same compound?
The value was 81.04.

What about the “Relative cell count to DMSO controls, Average (for correlation analysis)” value [2] of the same compound?
Its value is 94.96.
